Like-named read-outs stand apart in the source and are kept apart here.
Experiments:
Type in all cases: in vivo
Wheat = system: Wheat
Procedure: (§1) Herbicidal Action (Outdoor Trials)
(§2) The seeds or rhizome pieces of typical harmful plants were planted and grown under natural outdoor conditions. After the harmful plants had emerged, they were treated, as a rule at the 2- to 4-leaf stage, with various dosages of the compositions according to the invention at a water application rate of 100 to 400 I/ha (converted).
(§3) After the treatment (approx. 4-6 weeks after application), the herbidical activity of the active compounds or active compound mixtures was scored visually by comparing the treated plots with the untreated control plots. Damage and development of all above-ground parts of the plants was recorded. Scoring was done on a percentage scale (100% action=all plants dead; 50% action=50% of the plants and green plant parts dead; 0% action=no discernible action=like control plot). The score figures of in each case 4 plots were averaged.
(§4) The results are listed in the tables below, where the activity measured for the independent use of the active compounds (A) and (B) is stated in brackets and where g of AS/ha denotes grams of active substance per hectare.

Setaria viridis = test: Herbicidal action (outdoor trials), post-emergence, Setaria viridis; details: read-out: Setaria viridis % activity
Procedure: as §1, §2, §3, §4

Veronica hederifolia = test: Herbicidal action (outdoor trials), post-emergence, Veronica hederifolia; details: visual score approx. 4-6 weeks after application, mean of 4 plots
Procedure: as §1, §2, §3, §4

In the case of `COc1nn(C(=O)NS(=O)(=O)c2ccccc2OC(F)(F)F)c(=O)n1C.[Na]` [flucarbazone (B1), 4,5-dihydro-3-methoxy-4-methyl-5-oxo-N-(2-trifluoromethoxyphenylsulfonyl)-1H-1,2,4-triazole-1-carboxamide sodium salt], the Wheat % damage (Wheat; 10 g of AS/ha, outdoor, visual score approx. 4-6 weeks after application, mean of 4 plots) is reported as 5% and the inhibition at 10 g/ha (Setaria viridis) is reported as 40%.
For `O=C(Nc1ccc(F)cc1)c1cccc(Oc2cccc(C(F)(F)F)c2)n1` [picolinafen (B6), 4′-fluoro-6-[(α,α,α-trifluoro-m-tolyl)oxy]picolinanilide], the “Veronica hederifolia % damage” value (Veronica hederifolia; 5 g of AS/ha) was 55%, the inhibition at 30 g/ha (Veronica hederifolia; Veronica hederifolia, 30 g of AS/ha) was 65% and the Wheat % activity (Wheat; in vivo) was 0%. For the same compound, the Wheat % damage (Wheat; in vivo) was 0%.
`COc1ncc(F)c2nc(S(=O)(=O)Nc3c(F)cccc3F)nn12` [florasulam (B3), 2′,6′,8′-trifluoro-5-methoxy[1,2,4]triazolo[1,5-c]pyrimidine-2-sulfanilide] was tested, and the “Veronica hederifolia % damage” value (Veronica hederifolia; 4 g of AS/ha) was 60% and the Wheat % activity (Wheat; 4 g of AS/ha, outdoor, visual score approx. 4-6 weeks after application, mean of 4 plots) was 0%.
For `CCOC(=O)/C(Cl)=C/c1cc(N2C(=O)C3=C(CCCC3)C2=O)ccc1Cl` [cinidon-ethyl (B7), ethyl (Z)-2-chloro-3-[2-chloro-5-(1,2-cyclohex-1-enedicarboximido)phenyl]acrylate], the “Veronica hederifolia % damage” value (Veronica hederifolia; 25 g of AS/ha) was 35%, the “Veronica hederifolia % activity” value (Veronica hederifolia; 50 g of AS/ha) was 25% and the Wheat % activity (Wheat; 25 g of AS/ha, outdoor, visual score approx. 4-6 weeks after application, mean of 4 plots) was 0%. The Wheat % damage (Wheat; 50 g of AS/ha, outdoor, visual score approx. 4-6 weeks after application, mean of 4 plots) was 5%.

Reference: patent US8158558B2, “Herbicide combinations comprising specific sulfonylureas” (Bayer CropScience GmbH, priority 2001, dated 2012)
